Reference: ChEMBL document CHEMBL1156506, “Changes to the HIV long terminal repeat and to HIV integrase differentially impact HIV integrase assembly, activity, and the binding of strand transfer inhibitors” (J Biol Chem, 2007)

Assay: Binding affinity to HIV wild type integrase
Parameters: species or system Human immunodeficiency virus

Kd: 21 nM
Structure (SMILES): [3H]C([3H])([3H])n1c(N2CCCCS2(=O)=O)nc(C(=O)NCc2ccc(F)cc2)c(O)c1=O
